In one assay the target is T1, P2Y6 receptor (Homo sapiens, UniProt Q15077).
T1 construct: expressed in transfected cells; host or cells: 1321N1 human astrocytoma cell line
The experiment in a line: Activation of P2Y6 receptor: receptor induced Ca2+ changes with fluo-4 in 1321N1 astrocytoma cells. It counts as cell-based. As to the method:
Synthetic ligands were tested for activation of P2Y6 receptor by measuring receptor induced Ca^2+ changes with the fluorescent Ca^2+ indicator fluo-4. 1321N1 human astrocytoma cell lines either expressing P2Y2, P2Y4 or P2Y6 receptors were plated into 24-well plates. Two days after plating, fluorometric measurements were made and responses of cells to a serial dilution of ligands were determined P2Y6 receptor-mediated Ca^2+ fluorescent change was determined by normalized accumulation of fluorescent change of 3 timepoints after ligand administration subtracted by value from ACSF control. Changes in fluorescent intensity were plotted corresponding to ligand concention in GraphPad. Dose-response curve and EC50 for each ligand was estimated using nonlinear curve fit and Sigmoidal dose-response analysis. […] The sodium salt of compound 5 was only effective at elevating Ca^2+ levels when applied to cells expressing P2Y6 receptors and not effective in P2Y2, or P2Y4 receptor expressing cells. The ability of the sodium salt of compound 5 to elevate Ca^2+ signals in P2Y6 expressing cells was attenuated by addition of the P2Y6 receptor antagonist MRS2578.
(§1) Synthetic ligands were tested for activation of P2Y6 receptor by measuring receptor induced Ca^2+ changes with the fluorescent Ca^2+ indicator fluo-4, and results are shown in FIG. 10(A)-(K). 1321N1 human astrocytoma cell lines either expressing P2Y2, P2Y4 or P2Y6 receptors were plated into 24-well plates. Two days after plating, fluorometric measurements were made and responses of cells to a serial dilution of ligands were determined P2Y6 receptor-mediated Ca^2+ fluorescent change was determined by normalized accumulation of fluorescent change of 3 timepoints after ligand administration subtracted by value from ACSF control. Changes in fluorescent intensity were plotted corresponding to ligand concentration in GraphPad. Dose-response curve and EC50 for each ligand was estimated using nonlinear curve fit and Sigmoidal dose-response analysis. […]

For assay [1], the system named is PSAPP mice. Description: Postmortem immunohistochemistry of plaque load in cortex and hippocampus. The format is in vivo, mouse. From the text: (§2) Heterozygous mutant (K670N/M671L) APP (50% C57B6, 50% SJL) transgenic mice were crossed with heterozygous mutant (A246E) PS-1 (50% C57B6, 50% SJL) transgenic mice to generate heterozygous PSAPP transgenic mice (also referred to as PS-1/APP or PSAPP+/+ mice), which refers to animals heterozygous for the PS-1 A246E transgene and the APP K670N/M671L transgene. Non-transgenic control animals were littermates (also referred to as PSAPP_−/− mice) generated in the breeding for PSAPP transgenic animals. Mouse genotype was determined by Polymerase Chain Reaction (PCR). Both male and female mice of 6-7 months old were used for the experiments below. All animal experiments were performed in accordance with the Tufts Animal Care and Use Committee and with national regulations and policies.
Mice were perfused transcardially with 4% paraformaldehyde and 40 μm Coronal sections were collected. Sections were sequentially incubated in 0.3% H2O2 for 10 minutes, blocking solution for 2 hrs, blocking solution containing the primary antibody (rabbit anti-beta1-42; rabbit anti-beta1-40, from Chemicon International and rat anti-CD45) for 48 hours at 4° C., and blocking solution containing biotinylated antibody or fluorescently-labeled antibody for 2 hours at room temperature. Sections were visualized in a bright field microscope or a confocal microscope, and the optical density was obtained using MetaMorph software.
After repeated imaging, brains were fixed and subjected to postmortem immunohistochemistry with amyloid beta specific antibodies β1-40 and β1-42 to evaluate the plaque load (area occupied by immunostaining of plaque) in cortex and hippocampus.
PSB0474 was systemically administered to PSAPP mice via intraperitoneal injection for 2, 4 and 6 consecutive days. In one group, prior to evaluation and following to administration for 6 consecutive days, treatment was suspended for two weeks (6+2 weeks group). Brains were then fixed and plaque load was evaluated by immunostaining with the amyloid beta specific antibodies: β1-40 and β1-42. Representative images of plaque load in cortex and hippocampus from animals that received injections of PSB0474 according to the foregoing injection schedules are shown in FIG. 5(A)-(D). […] Whereas, when administration of PSB0474 was stopped for 2 weeks following six consecutive days of treatment (denoted as the 6+2 weeks group), β1-40 staining rebounded; although to a level lower than observed in mice treated with saline as a vehicle control. FIGS. 6A and 6B depict the reduction in plaque load (%) the cortex and hippocampus, respectively, in PSAPP mice after treatment with 3-phenacyl-UDP for 2, 4, or 6 consecutive days, as assayed by staining with the β1-40 antibody. FIGS. 6C-6F depict data obtained following administration of different dosages of PSB0474.
To generate these graphs showing plaque load, mice were euthanized, brain sections cut and antibodies directed against Aβ 42 were used to disclose Aβ plaques. Images were acquired digitally and an algorithm was applied to threshold the image so that plaques were isolated from the background. The algorithm then calculated the percent area of the field of view occupied by the plaques.

The test system of assay [2] is PSAPP mice. The experiment in a line: Contextual fear conditioning test (freezing behavior). The format is in vivo, mouse. As to the method:
On day one, animals were trained in a fear conditioning apparatus for a total of 7 minutes with a two-pairing paradigm of cue and mild foot shock (a 30-s acoustic-conditioned stimulus, 80 dB; a 2-s shock stimulus, 0.5 mA). To evaluate contextual fear learning, the animals were returned to the training context 24 hours post-training, and freezing behavior was scored for 5 minutes. Freezing behavior was monitored by MotorMonitor (Hamilton Kinder) and scored every 5 seconds.
In this study, the fear conditioning associative learning paradigm was used as a rapid cognition assay for PSAPP mice. This study allowed us to probe cognitive function with a single training day followed in 24 hours by tests for contextual and cued fear learning. Contextual fear learning is dependent upon a brain area that has been implicated as a locus for cognitive decline in AD: the hippocampus. Two pairings of CS-US for fear conditioning were followed 24 hours later by testing for contextual and cued fear learning. Previous studies have reported that PSAPP animals appear to have a selective hippocampus-dependent impairment in associative learning following two pairings of conditioned stimuli for fear conditioning.
This represents a decrease in the cognitive impairment observed in the untreated mice.

The test system of assay [3] is PSAPP mice. Description: Two-photon in vivo imaging of methoxyX04-labeled amyloid plaques in barrel cortex. The arrangement: species or system mouse. Conditions: vs ACSF.
Excerpt: as §2
In this study, PSAPP mice were anesthetized using isoflurane and a thin-skull preparation was used to minimize the surface damage. Amyloid plaques were visualized with methoxyX04 labeling and blood plasma was labeled with Rhodamine dextran to facilitate re-localization of the same imaging area. Stack images were obtained using a two-photon system (Prairie Technologies) with excitation at 850 nm. The emission was detected by external photomultiplier tubes (525/70; DLCP 575; 607/45 nm).
Animals were anesthetized and immobilized in a stereotaxic frame. […]

For assay [4], the system named is PSAPP mice. Description: Hippocampal long-term potentiation (LTP) recording, CA1, high-frequency stimulation. It counts as in vivo, mouse. Conditions: acute treatment. The protocol:
Hippocampal slices (350 μm thick) were prepared from 6-month-old PSAPP mice. Baseline responses were obtained every 10 seconds and Input-output (I/O) curves, paired-pulse modification and LTP were successively measured. The stimulation intensity was set to a level that gives a value of 30% of the maximum obtained. LTP were induced by high frequency stimulation (HFS, 100 pulses at 100 Hz, four times) or by theta-burst stimulation (TBS, 10 bursts at 5 Hz, repeated 10 times in 15 s intervals).
Accumulated evidence has shown that amyloid peptides naturally secreted or isolated from Alzheimer's brains impair synaptic plasticity, especially hippocampal long-term potentiation (Walsh et al., 2002). Therefore, we further performed LTP recordings in PASPP mice and investigated whether P2Y6 receptor-mediated plaque clearance affects synaptic plasticity. […] First, it was observed that LTP at the schaffer collateral synapse within the CA1 region was depressed in PSAPP mice, as compared with littermates (FIG. 8(A)).

Another assay concerns wildtype mice. The experiment in a line: Plasma cytokine levels in wildtype mice. It counts as in vivo, mouse. Conditions: wildtype animals, 1 ug/kg i.p. daily x7. The protocol:
(§3) Inflammatory cytokines were assessed in mouse plasma of both wild type and PS1/APP mice (Alzheimer's mouse model) and the impact of intraperitoneal delivery of compound 5 on circulating cytokines was assessed. Seven daily intraperitoneal injections of 1 ug/kg of compound 5 were delivered to mice. 24 hours following the final injection, plasma was collected. Wildtype, age matched littermates and PSAPP mice (>6 months of age) were treated either with vehicle (phosphate buffered saline) or vehicle containing compound.

The test system of assay [5] is PSAPP mice. Description: Plasma cytokine levels in PSAPP mice. The format is in vivo, mouse. The protocol: as §3
A further assay addresses T2, P2Y4 receptor (Homo sapiens, UniProt P51582).
T2 construct: expressed in transfected cells; host or cells: 1321N1 human astrocytoma cell line
Description: Ca2+ mobilization (fluo-4) in 1321N1 astrocytoma cells expressing P2Y4 receptor. It counts as cell-based. Conditions: sodium salt; 1321N1 cells expressing P2Y4. The protocol:
as §1, with “fluo-4.” for “fluo-4, and results are shown in FIG. 10(A)-(K).”, “concention” for “concentration”
(§4) Synthetic ligands were tested for activation of P2Y6 receptor by measuring receptor induced Ca^2+ changes with the fluorescent Ca^2+ indicator fluo-4, and results are shown in FIG. 10(A)-(K). […] Two days after plating, fluorometric measurements were made and responses of cells to a serial dilution of ligands were determined P2Y6 receptor-mediated Ca^2+ fluorescent change was determined by normalized accumulation of fluorescent change of 3 timepoints after ligand administration subtracted by value from ACSF control. […]

For another assay, the target named is T3, P2Y2 receptor (Homo sapiens, UniProt P41231).
T3 construct: expressed in transfected cells; host or cells: 1321N1 human astrocytoma cell line
T3 sequence (P41231 whole entry): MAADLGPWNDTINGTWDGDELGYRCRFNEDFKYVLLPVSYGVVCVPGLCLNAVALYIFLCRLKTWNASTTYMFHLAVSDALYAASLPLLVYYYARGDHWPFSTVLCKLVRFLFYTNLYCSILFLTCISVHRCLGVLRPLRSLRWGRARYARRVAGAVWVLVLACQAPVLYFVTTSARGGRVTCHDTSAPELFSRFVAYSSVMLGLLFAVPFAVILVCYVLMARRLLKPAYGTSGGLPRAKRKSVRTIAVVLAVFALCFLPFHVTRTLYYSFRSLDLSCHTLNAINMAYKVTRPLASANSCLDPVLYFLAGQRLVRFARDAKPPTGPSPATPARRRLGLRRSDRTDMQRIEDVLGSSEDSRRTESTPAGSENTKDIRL
Description: Ca2+ mobilization (fluo-4) in 1321N1 astrocytoma cells expressing P2Y2 receptor. It counts as cell-based. Conditions: sodium salt; 1321N1 cells expressing P2Y2. The protocol:
as §1, with “fluo-4.” for “fluo-4, and results are shown in FIG. 10(A)-(K).”, “concention” for “concentration”
as §4

Setting [6] is: β1-42 antibody, i.p. daily 7 days, vs vehicle.

Here are results for four molecules from patent US9750760B2, “Uridine diphosphate derivatives, prodrugs, compositions and methods for treating neurodegenerative disorders” (Tufts University, priority 2012, dated 2017).

T1 sequence (Q15077 whole entry): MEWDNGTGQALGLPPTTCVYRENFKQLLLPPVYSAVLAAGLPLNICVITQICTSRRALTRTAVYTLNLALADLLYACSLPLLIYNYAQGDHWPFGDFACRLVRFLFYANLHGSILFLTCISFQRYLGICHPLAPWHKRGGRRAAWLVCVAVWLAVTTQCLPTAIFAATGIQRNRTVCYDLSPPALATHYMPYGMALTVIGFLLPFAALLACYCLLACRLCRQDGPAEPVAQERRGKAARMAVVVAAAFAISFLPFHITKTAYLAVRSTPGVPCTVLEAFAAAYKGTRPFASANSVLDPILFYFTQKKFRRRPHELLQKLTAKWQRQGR
T2 sequence (P51582 whole entry): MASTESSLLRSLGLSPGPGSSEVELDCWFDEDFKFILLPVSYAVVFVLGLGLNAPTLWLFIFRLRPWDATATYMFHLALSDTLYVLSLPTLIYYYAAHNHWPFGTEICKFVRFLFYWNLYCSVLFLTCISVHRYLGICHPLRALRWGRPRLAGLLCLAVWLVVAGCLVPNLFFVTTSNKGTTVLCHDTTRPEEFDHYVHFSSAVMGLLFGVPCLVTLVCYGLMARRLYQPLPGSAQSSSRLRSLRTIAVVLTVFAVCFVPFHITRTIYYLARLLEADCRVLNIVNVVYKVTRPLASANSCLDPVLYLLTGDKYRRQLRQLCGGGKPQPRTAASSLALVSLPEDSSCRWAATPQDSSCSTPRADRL

Turning to `S=C=Nc1cccc(NC(=S)NCCCCNC(=S)Nc2cccc(N=C=S)c2)c1` [MRS2578, reference compound], at P2Y6 receptor (P2Y6 expressing cells, antagonist added), the “effect of antagonist on Ca2+ signals elevated by sodium salt of compound 5” value is reported as “attenuated”.
Turning to `O=C(Cn1c(=O)ccn(C2OC(COP(=O)(O)OP(=O)(O)O)C(O)C2O)c1=O)c1ccccc1` (stereo not drawn) [PSB0474, 3-phenacyl-UDP], in the assay with PSAPP mice [1] (6 consecutive days then stopped for 2 weeks, level still lower than saline vehicle), the β1-40 staining result is on record as “rebounded”. In addition, the “effects on the efficacy endpoint (plaque load)” value with PSAPP mice [1] (higher dose of 1 mg/kg, one week daily) is “smaller effects”. Moreover, the “immunoreactivity of β1-40 in cortex and hippocampus” value in the assay with PSAPP mice [1] (i.p. for 4 consecutive days) and in the assay on PSAPP mice [1] (i.p. for 6 consecutive days) was “significantly decreased” each time. Also, in the assay with PSAPP mice [2] (one week treatment with 1 ug/kg, vs vehicle), the “memory deficit (freezing time), contextual fear conditioning” value is given as “rescued the memory deficit”.
As for `O=c1ccn([C@@H]2O[C@H](COP(=O)(O)OP(=O)(O)O)[C@@H](O)[C@H]2O)c(=O)[nH]1` [UDP, uridine diphosphate], the “plaque load, day 4/day 1 ratio” value with PSAPP mice [3] (FIG. 2D) is on record as “reduces”. Besides, the “number of plaques, day 4/day 1 ratio” value in the assay with PSAPP mice [3] (FIG. 2E) is recorded as “reduces”. For the same molecule, the “LTP (fEPSP %) at schaffer collateral synapse, CA1” value with PSAPP mice [4] (vs ACSF) was “significantly increased”. For the same molecule, in the assay on PSAPP mice [4] (comparable to littermates), the “last 15 min potentiation, field excitatory postsynaptic potential (fEPSP)” value is “significant increase”.
For the molecule `O=c1ccn([C@@H]2O[C@H](COP(=O)(O)OP(=O)(O)O)C(O)[C@@H]2O)c(=O)n1Cc1noc2ccccc12` (stereo partly drawn) [compound 5], on P2Y6 receptor (sodium salt, 1321N1 cells expressing P2Y6), the “elevating Ca2+ levels in cells expressing P2Y6 receptors” value is listed as “effective”. In addition, at P2Y6 receptor (sodium salt, Ca2+ fluorescent change, 1321N1 cells expressing P2Y6 receptor), the EC50 was 12 nM. Further, in the assay with PSAPP mice [1] (setting [6]), the “Aβ plaque load (%) in cortex” value was “substantial decrease” and the “Aβ plaque load (%) in hippocampus” value was “substantial decrease”. In the assay on wildtype mice, the “plasma IL-2 level” value was “reduced” and the “plasma IL-10 level” value is “reduced”. In the assay on PSAPP mice [5] (1 ug/kg i.p. daily x7), the “plasma IL-2 level” value is reported as “reduced”, the “plasma IL-7 level” value is given as “reduced”, the “plasma IL-9 level” value is reported as “reduced” and the “plasma IL-10 level” value is recorded as “reduced”. For the same molecule, in the assay on PSAPP mice [5] (1 ug/kg i.p. daily x7), the “plasma IL-15 level” value was “reduced”, the “plasma MIG level” value is given as “reduced” and the “plasma MIP1α level” value is recorded as “reduced”. Besides, the “plasma IL-1β level” value with PSAPP mice [5] (1 ug/kg i.p. daily x7, 24 hours after final injection) is “reduced”. Besides, the “elevating Ca2+ levels in P2Y4 receptor expressing cells” value on P2Y4 receptor was “not effective”. Besides, the “freezing behavior (freezing %), contextual fear conditioning” value with PSAPP mice [2] (i.p. daily for 7 consecutive days, vs vehicle control) is “significantly improved”. At P2Y2 receptor, the “elevating Ca2+ levels in P2Y2 receptor expressing cells” value is reported as “not effective”.
